Reference: PubChem BioAssay (NCI)
Values joined by “and” are separate entries in the source; they are usually repeats but may differ in a detail not shown here. Equal entries are not always repeated.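 Step 1: Grow cells in 96-well plates. Step 2: Expose to compound for 48 hours at 5 concentrations. Step 3: Interpolate endpoints linearly; if unreached, use highest concentration. GI50 is the concentration that inhibits growth by half. TGI: concentration producing complete growth inhibition.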

Columns and labels:
Assay in all cases: NCI tumour cell line growth inhibition, 48 h
CCRF-CEM leukemia = tested on: CCRF-CEM leukemia
SW-620 colon = tested on: SW-620 colon
M19-MEL melanoma = tested on: M19-MEL melanoma
EKVX NSCLC = tested on: EKVX NSCLC
NCI-H226 lung = tested on: NCI-H226 lung
LXFL 529 NSCLC = tested on: LXFL 529 NSCLC
U251 CNS = tested on: U251 CNS
CAKI-1 renal = tested on: CAKI-1 renal
SF-268 CNS = tested on: SF-268 CNS
MCF7 breast = tested on: MCF7 breast

COc1ccc(C(=O)C2CCC(C(=O)O)C2)cc1 (configuration not stated)
TGI (CCRF-CEM leukemia): > 100 µM
TGI (SW-620 colon): > 100 µM
TGI (M19-MEL melanoma): > 100 µM
TGI (EKVX NSCLC): > 100 µM
TGI (NCI-H226 lung): > 100 µM
TGI (LXFL 529 NSCLC): > 100 µM
TGI (U251 CNS): > 100 µM
TGI (CAKI-1 renal): > 100 µM

CCC[CH2][Sn](=[O])[CH2]CCC
GI50 (SF-268 CNS): > 50 µM
TGI (SF-268 CNS): > 50 µM
GI50 (CCRF-CEM leukemia): > 50 µM
TGI (CCRF-CEM leukemia): > 50 µM
GI50 (SW-620 colon): > 50 µM
TGI (SW-620 colon): > 50 µM
GI50 (M19-MEL melanoma): > 50 µM
TGI (M19-MEL melanoma): > 50 µM
GI50 (EKVX NSCLC): > 50 µM
TGI (EKVX NSCLC): > 50 µM
GI50 (NCI-H226 lung): > 50 µM
TGI (NCI-H226 lung): > 50 µM
GI50 (LXFL 529 NSCLC): > 50 µM
TGI (LXFL 529 NSCLC): > 50 µM
GI50 (U251 CNS): > 50 µM
TGI (U251 CNS): > 50 µM
GI50 (CAKI-1 renal): > 35.1 µM
TGI (CAKI-1 renal): > 50 µM

COc1ccc(CC(=O)NCCc2ccc(OC)c(OC)c2OC)cc1
TGI (SF-268 CNS): > 100 µM
TGI (CCRF-CEM leukemia): > 100 µM
TGI (SW-620 colon): > 100 µM
TGI (M19-MEL melanoma): > 100 µM
TGI (EKVX NSCLC): > 100 µM
TGI (NCI-H226 lung): > 100 µM
TGI (LXFL 529 NSCLC): > 100 µM
TGI (U251 CNS): > 100 µM

CC(C)(C)C1=CC(=N/N=c2\scc(-c3ccccc3)n2-c2ccccc2)C=C(C(C)(C)C)C1=O
TGI (SF-268 CNS): > 100 µM
TGI (CCRF-CEM leukemia): > 100 µM
TGI (SW-620 colon): > 100 µM
TGI (M19-MEL melanoma): > 100 µM
TGI (EKVX NSCLC): > 100 µM
TGI (NCI-H226 lung): > 100 µM
TGI (LXFL 529 NSCLC): > 100 µM
TGI (U251 CNS): > 100 µM
TGI (CAKI-1 renal): > 100 µM

O=C1c2ccccc2-c2c3c(cc4ccnc1c24)OCO3
TGI (SF-268 CNS): 47.1 µM and > 100 µM
TGI (CCRF-CEM leukemia): 39 µM and 20.7 µM
TGI (SW-620 colon): 23.4 µM and > 100 µM
TGI (M19-MEL melanoma): 86.7 µM and 12.9 µM
TGI (EKVX NSCLC): 11.7 µM and 35.7 µM
TGI (NCI-H226 lung): 26.2 µM and 24.4 µM
TGI (LXFL 529 NSCLC): 51.5 µM and > 100 µM
TGI (U251 CNS): 35.1 µM and > 100 µM
TGI (CAKI-1 renal): 28.1 µM and 15.5 µM

NC(=S)N1N=C2CCCCCC[C@@H]2[C@H]1c1ccccc1
TGI (SF-268 CNS): > 100 µM
TGI (CCRF-CEM leukemia): > 100 µM
TGI (SW-620 colon): > 100 µM
TGI (M19-MEL melanoma): > 100 µM
TGI (EKVX NSCLC): > 100 µM
TGI (NCI-H226 lung): > 100 µM
TGI (LXFL 529 NSCLC): > 100 µM
TGI (U251 CNS): > 100 µM
TGI (CAKI-1 renal): > 100 µM

COc1ccc(N2C(=O)C3CC(c4ccc(Br)cc4)c4c([nH]c5ccccc45)C3C2=O)cc1 (configuration not stated)
TGI (SF-268 CNS): 23.4 µM
TGI (CCRF-CEM leukemia): > 100 µM
TGI (SW-620 colon): 18.5 µM
TGI (M19-MEL melanoma): 25.6 µM
TGI (EKVX NSCLC): 42.7 µM
TGI (NCI-H226 lung): 77.2 µM
TGI (LXFL 529 NSCLC): 14.2 µM
TGI (CAKI-1 renal): 29.6 µM

O=C1C2CCN(CC2)C1CN1CCOCC1 (configuration not stated)
TGI (SF-268 CNS): 34.3 µM
TGI (CCRF-CEM leukemia): > 23.8 µM
TGI (MCF7 breast): 10.8 µM
TGI (SW-620 colon): 3.2 µM
TGI (M19-MEL melanoma): 26.2 µM
TGI (EKVX NSCLC): 33.8 µM
TGI (NCI-H226 lung): 26.5 µM
TGI (LXFL 529 NSCLC): 3.88 µM
TGI (U251 CNS): 26.2 µM
TGI (CAKI-1 renal): 4.09 µM

CSC(=O)C[C@@]12O[C@@H]([C@@H](C)C3CCC4[C@@H]5C(O)CC6=CC(=O)C=C[C@]6(C)C5CC[C@@]43C)C[C@](C)(O1)C(C)(C)O2 (some centres not stated)
TGI (SF-268 CNS): 34.6 µM
TGI (CCRF-CEM leukemia): 19.1 µM
TGI (SW-620 colon): 33.2 µM
TGI (M19-MEL melanoma): 8.4 µM
TGI (NCI-H226 lung): 38.7 µM
TGI (LXFL 529 NSCLC): 26.4 µM
TGI (U251 CNS): 25.2 µM
TGI (CAKI-1 renal): 34.9 µM

O=C(O)Cc1cccc2c(=O)cc(-c3ccccc3)oc12
GI50 (SF-268 CNS): 814 µM
TGI (SF-268 CNS): > 1000 µM
GI50 (CCRF-CEM leukemia): > 49.6 µM and 29.8 µM
TGI (CCRF-CEM leukemia): 237 µM and 747 µM
GI50 (MCF7 breast): 581 µM
TGI (MCF7 breast): 250 µM and > 1000 µM
GI50 (SW-620 colon): 313 µM
TGI (SW-620 colon): > 1000 µM
TGI (M19-MEL melanoma): > 250 µM
GI50 (EKVX NSCLC): 611 µM
TGI (EKVX NSCLC): 250 µM and > 1000 µM
GI50 (NCI-H226 lung): 363 µM
TGI (NCI-H226 lung): 250 µM and > 1000 µM
GI50 (U251 CNS): 360 µM
TGI (U251 CNS): > 1000 µM
GI50 (CAKI-1 renal): > 46.8 µM and 163 µM
TGI (CAKI-1 renal): > 72 µM and 194 µM and 420 µM

CCN(CC)CCN(CC)CC.CCN(CC)CCN(CC)CC.[Cu+2].[Cu+2].[O-][Cl+3]([O-])([O-])[O-].[OH3+].[OH3+]
GI50 (SF-268 CNS): 23.9 µM
TGI (SF-268 CNS): 50.3 µM
GI50 (CCRF-CEM leukemia): 37.6 µM
TGI (CCRF-CEM leukemia): > 100 µM
GI50 (SW-620 colon): > 100 µM
TGI (SW-620 colon): > 100 µM
GI50 (M19-MEL melanoma): 24.2 µM
TGI (M19-MEL melanoma): 53.7 µM
GI50 (LXFL 529 NSCLC): > 100 µM
TGI (LXFL 529 NSCLC): > 100 µM
GI50 (U251 CNS): 17.2 µM
TGI (U251 CNS): 32.1 µM
GI50 (CAKI-1 renal): > 100 µM
TGI (CAKI-1 renal): > 100 µM

CCOC(=O)C12CCCC1(O)N(NC(=O)OC)C(C)=C2C(=O)OC (configuration not stated)
TGI (SF-268 CNS): > 100 µM
TGI (CCRF-CEM leukemia): > 100 µM
TGI (SW-620 colon): > 100 µM
TGI (M19-MEL melanoma): > 100 µM
TGI (EKVX NSCLC): > 100 µM
TGI (NCI-H226 lung): > 100 µM
TGI (LXFL 529 NSCLC): > 100 µM
TGI (U251 CNS): > 100 µM
TGI (CAKI-1 renal): > 100 µM

CC(C)(C)C(=O)N1C(C(=O)O)Cc2ccccc2[C@@H]1Cc1ccccc1 (some centres not stated)
TGI (SF-268 CNS): > 100 µM
TGI (CCRF-CEM leukemia): > 100 µM
TGI (SW-620 colon): > 100 µM
TGI (M19-MEL melanoma): > 100 µM
TGI (EKVX NSCLC): > 100 µM
TGI (NCI-H226 lung): > 100 µM
TGI (LXFL 529 NSCLC): > 100 µM
TGI (U251 CNS): > 100 µM
TGI (CAKI-1 renal): > 100 µM

Cc1cccc(-c2nnc3s/c(=C\c4ccc(N(C)C)cc4)c(=O)n23)c1
TGI (SF-268 CNS): > 100 µM
TGI (CCRF-CEM leukemia): > 100 µM
TGI (SW-620 colon): > 100 µM
TGI (M19-MEL melanoma): > 100 µM
TGI (EKVX NSCLC): > 100 µM
TGI (NCI-H226 lung): > 100 µM
TGI (LXFL 529 NSCLC): > 100 µM
TGI (U251 CNS): > 100 µM
TGI (CAKI-1 renal): > 100 µM

CCOC(=O)C1(C(=O)OCC)C(C(C)(C)C)=C(C)c2ccccc21
TGI (SF-268 CNS): 39.1 µM
TGI (CCRF-CEM leukemia): 40.9 µM
TGI (SW-620 colon): 28.8 µM
TGI (M19-MEL melanoma): 38.8 µM
TGI (EKVX NSCLC): 56.2 µM
TGI (NCI-H226 lung): 28.5 µM
TGI (LXFL 529 NSCLC): 24.5 µM
TGI (U251 CNS): 30.1 µM

O=C1CCCCCCC2=C1C(Sc1ccccc1)CC2 (configuration not stated)
TGI (SF-268 CNS): 44 µM
TGI (CCRF-CEM leukemia): 67.8 µM
TGI (SW-620 colon): > 100 µM
TGI (M19-MEL melanoma): > 100 µM
TGI (EKVX NSCLC): 85.2 µM
TGI (NCI-H226 lung): > 100 µM
TGI (LXFL 529 NSCLC): > 100 µM
TGI (U251 CNS): > 100 µM

CN(C)CCNc1ccc2ncn3c4ccc(O)cc4c(=O)c1c23
TGI (SF-268 CNS): 10.7 µM
TGI (CCRF-CEM leukemia): 15.3 µM
TGI (MCF7 breast): 4.91 µM
TGI (SW-620 colon): 11.8 µM
TGI (M19-MEL melanoma): 13.1 µM
TGI (EKVX NSCLC): 17.5 µM
TGI (NCI-H226 lung): 3.47 µM
TGI (LXFL 529 NSCLC): 14.6 µM
TGI (U251 CNS): 3.97 µM
TGI (CAKI-1 renal): 4.83 µM

CC(=O)OCc1c(O)c2c([nH]c1=O)CCc1ccccc1-2
TGI (SF-268 CNS): 221 µM
TGI (CCRF-CEM leukemia): 297 µM
TGI (SW-620 colon): 111 µM
TGI (M19-MEL melanoma): 108 µM
TGI (EKVX NSCLC): > 350 µM
TGI (NCI-H226 lung): > 350 µM
TGI (LXFL 529 NSCLC): 111 µM
TGI (U251 CNS): > 350 µM
TGI (CAKI-1 renal): 130 µM

O=S1(=O)c2ccccc2N(O)C2=NCCN21
TGI (SF-268 CNS): > 100 µM
TGI (CCRF-CEM leukemia): > 100 µM
TGI (SW-620 colon): > 100 µM
TGI (M19-MEL melanoma): > 100 µM
TGI (EKVX NSCLC): > 100 µM
TGI (NCI-H226 lung): > 100 µM
TGI (LXFL 529 NSCLC): > 100 µM
TGI (U251 CNS): > 100 µM
TGI (CAKI-1 renal): > 100 µM

CN(C)c1ccc(/C=c2\sc3nnc(-c4ccco4)n3c2=O)cc1
TGI (SF-268 CNS): > 100 µM
TGI (CCRF-CEM leukemia): > 100 µM
TGI (SW-620 colon): > 100 µM
TGI (M19-MEL melanoma): > 100 µM
TGI (EKVX NSCLC): > 100 µM
TGI (NCI-H226 lung): > 100 µM
TGI (LXFL 529 NSCLC): > 100 µM
TGI (U251 CNS): > 100 µM
TGI (CAKI-1 renal): > 100 µM

CC(=O)OC12C(C)=C(C)C(=O)N1c1ccccc1N2C(C)=O (configuration not stated)
TGI (SF-268 CNS): > 100 µM
TGI (CCRF-CEM leukemia): > 100 µM
TGI (SW-620 colon): > 100 µM
TGI (M19-MEL melanoma): > 100 µM
TGI (EKVX NSCLC): > 100 µM
TGI (NCI-H226 lung): > 100 µM
TGI (LXFL 529 NSCLC): > 100 µM
TGI (U251 CNS): > 100 µM
TGI (CAKI-1 renal): > 100 µM
